Results from patent US8518872B2, “Methods of using (+)-1,4-dihydro-7-[(3S,4S)-3-methoxy-4-(methylamino)-1-pyrrolidinyl]-4-OXO-1-(2-thiazolyl)-1,8-naphthyridine-3-carboxylic acid in combination therapy” (Sunesis Pharmaceuticals, Inc., priority 2007, dated 2013).
Values joined by “and” are separate entries in the source; they are usually repeats but may differ in a detail not shown here. Identical values can stand only once.

Legend:
[1] = system: subcutaneous BxPC-3 xenografts (pancreatic carcinoma); assay: SNS-595 and gemcitabine in pancreatic carcinoma BxPC-3 xenograft model; assay type: in vivo, NIH-III mice; settings: SNS-595 15 mg/kg IV qw x3, gemcitabine 65 mg/kg IP biw x3; for BW Nadir: BxPC-3 xenograft mice; for BW Nadir / % Tumor Growth Inhibition (Day 38) / BW Nadir (Day of): combination of both; for BW Nadir (Day of): day of body weight nadir
Procedure: SNS-595 was administered once a week and gemcitabine was twice weekly for two weeks followed by one additional dose as indicated above with the combination being co-dosed. Tumor volume and animal body weight was measured at least once weekly. SNS-595 was administered once a week and gemcitabine was twice weekly for two weeks followed by one additional dose as indicated above with the combination being co-dosed. Tumor volume and animal body weight was measured at least once weekly.

[2] = system: subcutaneous H460 xenografts (non-small cell lung carcinoma); assay: SNS-595 and gemcitabine in non-small cell lung carcinoma H460 xenograft model; assay type: in vivo, athymic nude mice; settings: SNS-595 10 mg/kg IV qw x3, gemcitabine 75 mg/kg IP biw x2, combination of both; for BW Nadir: H460 xenograft mice; for BW Nadir (Day of): day of body weight nadir
Procedure: The effect of co-administration of SNS-595 and gemcitabine on the growth of non-small cell lung carcinoma, athymic nude mice bearing subcutaneous H460 xenografts were treated with SNS-595, gemcitabine or the two in combination as indicated below.
SNS-595 was administered once a week and gemcitabine was twice weekly as indicated above with the combination being co-dosed. In the vehicle group, the gemcitabine vehicle was administered 24 hours after the SNS-595 vehicle representing additional treatment arms in the experiment. Tumor volume and animal body weight was measured at least twice weekly.

[3] = system: subcutaneous H460 (non-small cell lung carcinoma); assay: SNS-595 and carboplatin in non-small cell lung carcinoma H460 xenograft model; assay type: in vivo, athymic nude mice; settings: SNS-595 10 mg/kg IV qw x5, carboplatin 75 mg/kg IP qw x3, combination of both
Procedure: The effect of co-administration of SNS-595 and carboplatin was observed on the growth of non-small cell lung carcinoma, athymic nude mice bearing subcutaneous H460. The mice were treated with SNS-595, carboplatin or the two in combination as indicated below.

[4] = Solubility of SNS-595 in acidic compositions; assay type: physicochemical; settings: acidic compositions (<pH 4)
Procedure: An illustrative example of a suitable composition comprises: 10 mg SNS-595 per mL of aqueous solution of 4.5% sorbitol that is adjusted to pH 2.5 with methanesulfonic acid. One protocol for making such a solution includes the following for making a 100 mg/10 mL presentation: 100 mg of SNS-595 and 450 mg D-sorbitol are added to distilled water; the volume is brought up to a volume of 10 mL; and the pH of the resulting solution is adjusted to 2.5 with methanesulfonic acid. The resulting composition is also suitable for lyophilization. The lyophilized form is then reconstituted with sterile water to the appropriate concentration prior to use.

[5] = system: subcutaneous A2780 xenografts (ovarian carcinoma); assay: SNS-595 and cisplatin in ovarian carcinoma A2780 xenograft model; settings: SNS-595 10 mg/kg IV qw x3, cisplatin 5 mg/kg IP qw x3, combination of both
Procedure: The effect of co-administration of SNS-595 and cisplatin was observed on the growth of ovarian carcinoma studied in athymic nude mice bearing subcutaneous A2780 xenografts. The mice were treated with SNS-595, cisplatin or the two in combination as indicated below.
Animal treatment was initiated when mean tumor volume was 200 mm^3. The combination was co-dosed once a week for three weeks. Tumor volumes and animal body weight were measured twice weekly.

BW Nadir [1] [%]	BW Nadir (Day of) [1]	BW Nadir [2] [%]	BW Nadir (Day of) [2]	Compound	% Tumor Growth Inhibition (Day 38) [1]	Tumor Growth Delay [1] [days]	% Tumor Growth Inhibition (Day 11) [2]	Tumor Growth Delay [2] [days]	% Tumor Growth Inhibition (Day 16) [3]	Tumor Growth Delay [3] [days]	% Tumor Growth Inhibition (Day 11) [5] [%]	Tumor Growth Delay [5] [days]	also measured
0	(Day 0)	−7.4	(Day 11)	Nc1ccn([C@@H]2O[C@H](CO)[C@@H](O)C2(F)F)c(=O)n1 [Gemcitabine, gemcitabine]	20.2%	12.5	36.6%	5.0					% Tumor Growth Inhibition (Day 38) ([1]; listed as gemcitabine): 20%; % Tumor Growth Inhibition (Day 11) ([2]; listed as gemcitabine): 37%
				N.N.O=C([O-])C1(C(=O)[O-])CCC1.[Pt+2] [Carboplatin, carboplatin]					31.6%	12.5			% Tumor Growth Inhibition (Day 16) ([3]; listed as carboplatin): 32%; BW Nadir ([3]; H460 xenograft mice): −2.8%; BW Nadir (Day of) ([3]; day of body weight nadir): (Day 16)
−2.5	(Day 11)	−5.9	(Day 11)	CN[C@H]1CN(c2ccc3c(=O)c(C(=O)O)cn(-c4nccs4)c3n2)C[C@@H]1OC [SNS-595, (+)-1,4-dihydro-7-[(3S,4S)-3-methoxy-4-(methylamino)-1-pyrrolidinyl]-4-oxo-1-(2-thiazolyl)-1,8-naphthyridine-3-carboxylic acid]	26% and 25.9%	23.0	62% and 61.9%	11.0	53% and 53.2%	23.0	21.7	5.5	solubility [4]: increased solubility
				N.N.[Cl][Pt][Cl] [Cisplatin, cisplatin]							49.0	11.0	BW Nadir ([5]; A2780 xenograft mice): −10.9%; % Tumor Growth Inhibition (Day 11) ([5]; listed as cisplatin): 49%; BW Nadir (Day of) ([5]; day of body weight nadir): (Day 11)
